Publication PMC8305652, “Copper(II) Complexes Containing Natural Flavonoid Pomiferin Show Considerable In Vitro Cytotoxicity and Anti-inflammatory Effects” (International Journal of Molecular Sciences, 2021)

How the values were obtained:
[1] = tested on: NF-κB/AP-1 in THP-1-XBlue-MD2-CD14 cells; test: LPS-stimulated NF-κB/AP-1 activity, SEAP reporter; format: cell-based, human; conditions: read 24 h after LPS; for inhibition of LPS-stimulated NF-κB/AP-1 activation: complexes applied at 200 nM and 50 nM, 1 h pre-treatment
Experimental: The activity of transcription factors NF-κB/AP-1 was evaluated using the THP-1-XBlue^TM-MD2-CD14 cell line [obtained from Invivogen (San Diego, CA, USA)], expressing an NF-κB/AP-1-inducible secreted embryonic alkaline phosphatase (SEAP) reporter gene, as was described previously. The complexes 1–5 were applied to the cells at the concentrations of 200 nM and 50 nM, pomiferin (at 200 nM), and a reference drug prednisone at 1 μM, respectively. Lipopolysaccharide (LPS) from E. coli 0111:B4 (Sigma-Aldrich) dissolved in PBS was used to trigger an inflammation-like reaction. The activity of the SEAP was determined by Quanti-Blue^TM reagent (Invivogen, San Diego, CA, USA) according to the manufacturer’s instructions 24 h after lipopolysaccharide stimulation. The activity of NF-κB/AP-1 was determined spectrophotometrically using the FLUOstar Omega microplate reader (BMG Labtech, Ortenberg, Germany) at 655 nm and compared with that of the vehicle.

[2] = tested on: colorectal adenocarcinoma (Caco-2); test: in vitro cytotoxicity, MTT assay; format: cell-based, human; conditions: at least three independent experiments
[3] = tested on: cisplatin-resistant ovarian carcinoma (A2780R); test: in vitro cytotoxicity, MTT assay; format: cell-based, human; conditions: mean ± SD, at least three independent experiments
Experimental: (§1) The testing was performed on the following human cancer cell lines: breast adenocarcinoma (MCF-7), osteosarcoma (HOS), lung adenocarcinoma (A549), prostate adenocarcinoma (PC-3), ovarian carcinoma (A2780), cisplatin-resistant ovarian carcinoma (A2780R) and colorectal adenocarcinoma (Caco-2) obtained from ATCC collection of cell lines and cultivated according to producer’s instructions.

[4] = tested on: breast adenocarcinoma (MCF-7); test: in vitro cytotoxicity, MTT assay; format: cell-based, human; conditions: at least three independent experiments
Experimental: as §1

[5] = tested on: ovarian carcinoma (A2780); test: in vitro cytotoxicity, MTT assay; format: cell-based, human; conditions: at least three independent experiments
Experimental: as §1

[6] = tested on: lung adenocarcinoma (A549); test: in vitro cytotoxicity, MTT assay; format: cell-based, human; conditions: at least three independent experiments
Experimental: as §1

[7] = tested on: prostate adenocarcinoma (PC-3); test: in vitro cytotoxicity, MTT assay; format: cell-based, human; conditions: mean ± SD, at least three independent experiments
Experimental: as §1

A2780 cells = test: Annexin V/propidium iodide cell death assay, flow cytometry; format: cell-based, human; conditions: 24 h; for Annexin V +/PI + cells (late apoptotic/secondary necrotic) / Annexin V +/PI − cells (early apoptotic): A2780, 15 µM, mean of three experiments
Experimental: Both methods were performed according to the manufacturers’ protocols with 1 modification in the caspase induction assay, which was the use of the CellEvent^TM Caspase-3/7 Green Detection Reagent only for detection of Caspase-3/7 activation. […] After 24 h, the cells were washed once with PBS (0.1 M, pH 7.4), detached with trypsin (0.25% in ethylenediaminetetraacetic acid (EDTA), Sigma-Aldrich), resuspended in 500 µL of the culture medium and divided into 2 separate tubes, the first for apoptosis assay and the second one for caspase activation analysis. After staining with appropriate dyes, samples were analyzed on a BD FACSVerse flow cytometer (Becton Dickinson, Franklin Lakes, NJ, USA) in 3 separate experiments, while at least 10^4 events were recorded for each sample prepared in duplicate.

THP-1 cells = test: intracellular production of reactive oxygen species, DCFH2-DA; format: cell-based, human; conditions: THP-1, 200 nM; for increase of total ROS levels: 1.5 h experiment; for ROS production, long term: 23.5 h, pyocyanin 100 μM as radical-forming control
Experimental: THP-1 cells were used for the determination of the potential of tested compounds to initiate the intracellular ROS production, as was described previously with some minor modifications. Cells in serum-free RPMI 1640 medium without phenol red were seeded into black 96-well plates (5 × 10^4 cells/100 µL/well). After 2 h of incubation, the cells were treated with copper(II) complexes 1–5 at a concentration of 200 nM, and pyocyanin at a final concentration of 100 μM was added into control group to trigger production of reactive oxygen species (ROS), respectively. After the incubation at 37 °C for either 1.5 h or 23.5 h, dichlorofluorescin diacetate (DCFH2-DA) (5 μg/mL) was added and cells were kept under the same conditions hereafter. Thirty minutes later, fluorometric measurement of the fluorescent product DCF was conducted using a Tecan Infinite F200 microplate reader (Tecan, Männedorf, Switzerland) with λ(ex./em.) = 485/520 nm.

[8] = tested on: primary culture of human hepatocytes (Hep); test: toxicity against primary culture of human hepatocytes; format: cell-based; conditions: tested range 0.1–100 μM
pUC19 plasmid DNA = test: nuclease-like activity, plasmid DNA cleavage; format: biochemical; conditions: for plasmid DNA nicked to OC-form: 10 µM; for cleavage of plasmid DNA: 300 µM; for DNA cleavage in the presence of ROS scavengers (KI, NaN3, DMSO): 0.66 mM H2O2, scavengers equimolar to complex; for effectivity of plasmid DNA cleavage with H2O2: order 2 ≈ 4 > 1
[9] = tested on: THP-1 human monocytic leukemia cell line; test: relative cell viability, WST-1; format: cell-based; conditions: 24 h, six independent experiments
Experimental: The THP-1 human monocytic leukemia cell line was purchased from the European Collection of Cell Cultures (ECACC, Salisbury, UK). Cells were cultured in an RPMI 1640 medium containing stabilized 2 mM L-glutamine (Biosera, Nuaille, France) supplemented with the mixture of antibiotics [100 U/mL penicillin and […] (Biosera, Nuaille, France)], and 10% foetal bovine serum (FBS) (HyClone, Marlborough, MA, USA). The cells were kept in an incubator at 37 °C in an atmosphere of air containing 5% CO2 and 100% humidity.
The relative cell viability of floating monocytes THP-1 were determined after 24 h incubation in a serum-free medium with compounds 1–5 dissolved in N,N-dimethylformamide (DMF) at increasing concentrations (20–0.125 µM) by the cell proliferation reagent WST-1 (Roche, Basel, Switzerland) according to the manufacturer’s manual, as we described previously. The IC50 values were calculated from resultant viability curves by four-parameter logistic (4PL) analysis.

[10] = tested on: TNF-α in differentiated THP-1 macrophages; test: TNF-α secretion, ELISA; format: cell-based, human; conditions: 200 nM, 1 h pre-treatment, LPS 1 µg/mL, 24 h
Experimental: Differentiated THP-1 macrophages (see above) were pre-treated with either 200 nM solutions of the tested complexes, or 200 nM solution of prednisone dissolved in 0.1% DMF or the vehicle (0.1% (v/v) DMF solution) for 1 h, as described previously. The concentration of TNF-α was measured using a Human TNF-α ELISA Kit (Diaclone, Besançon, France), according to the manufacturer’s manual. Each experiment was conducted in triplicate.

[11] = water-containing medium (10% DMF), 37 °C, 1 h

Compound | inhibition of LPS-stimulated NF-κB/AP-1 activation [1] | IC50 ([2]; mean ± SD) | IC50 [3] | IC50 ([4]; mean ± SD) | IC50 ([5]; mean ± SD) | IC50 ([6]; mean ± SD) | IC50 [7] | Annexin V +/PI + cells (late apoptotic/secondary necrotic) (A2780 cells) | Annexin V +/PI − cells (early apoptotic) (A2780 cells) | increase of total ROS levels (THP-1 cells) | ROS production, long term (THP-1 cells) | IC50 [8] | plasmid DNA nicked to OC-form (pUC19 plasmid DNA; [11]) | cleavage of plasmid DNA (pUC19 plasmid DNA; [11]) | DNA cleavage in the presence of ROS scavengers (KI, NaN3, DMSO) (pUC19 plasmid DNA) | effectivity of plasmid DNA cleavage with H2O2 (pUC19 plasmid DNA; 0.66 mM H2O2) | IC50 ([9]; serum-free medium) | secretion of TNF-α [10] | effect on LPS-stimulated NF-κB/AP-1 activity at 50 nM [1] | further results
CC(C)=CCc1c2c(c3occ(-c4ccc(O)c(O)c4)c(=O)c3c1[O-])C=CC(C)(C)O2.Cc1ccnc(-c2cc(C)ccn2)c1.O.O.O=[N+]([O-])[O-].[Cu+2] [Complex 2, (3-(3,4-dihydroxyphenyl)-8,8-dimethyl-6-(3-methylbut-2-en-1-yl)-4H,8H-benzo[1,2-b:3,4-b′]dipyran-4-one-5-olato-κ^2O4:O5)(4,4′-dimethyl-2,2′-bipyridine–κ^2N:N)copper(II) nitrate dihydrate] | able to inhibit | 5.1 ± 1.6 µM | 5.3 ± 1.1 µM | 29.6 ± 2 µM | 5.4 ± 2.4 µM | 20.9 ± 0.9 µM | > 50 µM | 19.8 ± 0.7% | 9.2 ± 0.8% | 55% | pro-oxidant effect almost diminished | > 100 µM | ca. 30% | cleave the DNA completely to small fragments | not affected by the addition of the ROS scavengers | comparable with the effectivity of copper sulphate pentahydrate | 7.9 ± 1.1 µM | decreased its production | – | –
CC(C)=CCc1c2c(c3occ(-c4ccc(O)c(O)c4)c(=O)c3c1O)C=CC(C)(C)O2 [pomiferin, 3-(3,4-dihydroxyphenyl)-5-hydroxy-8,8-dimethyl-6-(3-methylbut-2-ene-1-yl)-4H,8H-benzo[1,2-b:3,4-b′]dipyran-4-one] | – | – | – | – | – | – | – | 49.0 ± 1.9% | 10.0 ± 0.1% | – | did not increase the amount of ROS | – | – | – | – | – | – | – | slightly increased | IC50 ([2]; Homo sapiens, Caco-2, mean ± SD): 19.8 ± 2.4 µM; IC50 ([3]; Homo sapiens): 4.3 ± 1.3 µM; IC50 ([4]; Homo sapiens, MCF7, mean ± SD): 22 ± 0.1 µM; IC50 ([5]; Homo sapiens, A2780, mean ± SD): 8.4 ± 2 µM; IC50 ([6]; Homo sapiens, A549, mean ± SD): 21.2 ± 1.4 µM; IC50 ([7]; Homo sapiens): 18.5 ± 0.7 µM; viability at 15 µM (A2780 cells; Homo sapiens, A2780, 15 μM, Figure 3, one out of three independent experiments, read-out: Annexin - / PI - (viable cells)): 37.1%; ROS production, short term (THP-1 cells; 1.5 h): did not increase the amount of ROS; IC50 ([8]; Hepatocyte): > 50 µM; lowering of the portion of OC-form formed after addition of hydrogen peroxide (pUC19 plasmid DNA; 0.66 mM H2O2): ca. 20%; effect on supercoiled CCC-form of plasmid DNA (pUC19 plasmid DNA; [11]): did not affect; IC50 ([9]; Homo sapiens, THP-1, serum-free medium): > 10 µM
CC(C)=CCc1c2c(c3occ(-c4ccc(O)c(O)c4)c(=O)c3c1[O-])C=CC(C)(C)O2.CO.O=[N+]([O-])[O-].[Cu+2].c1ccc(-c2ccnc3c2ccc2c(-c4ccccc4)ccnc23)cc1 [Complex 4, (3-(3,4-dihydroxyphenyl)-8,8-dimethyl-6-(3-methylbut-2-en-1-yl)-4H,8H-benzo[1,2-b:3,4-b′]dipyran-4-one-5-olato-κ^2O4:O5)(4,7-diphenyl-1,10-phenanthroline–κ^2N:N)copper(II) nitrate methanol solvate] | able to inhibit | 22.9 ± 12.9 µM | 6.6 ± 2.3 µM | 16 ± 1.1 µM | 12.8 ± 3.1 µM | 8.7 ± 0.8 µM | 13 ± 1.1 µM | 93.3 ± 2.9% | – | 87% | pro-oxidant effect almost diminished | > 100 µM | ca. 30% | cleave the DNA completely to small fragments | not affected by the addition of the ROS scavengers | comparable with the effectivity of copper sulphate pentahydrate | 3.3 ± 1.2 µM | did not affect the TNF-α synthesis | – | –
(3-(3,4-dihydroxyphenyl)-8,8-dimethyl-6-(3-methylbut-2-en-1-yl)-4H,8H-benzo[1,2-b:3,4-b′]dipyran-4-one-5-olato-κ^2O4:O5)(dipyrido[3,2-a:2′,3′-c]phenazine–κ^2N4:N5)copper(II) nitrate methanol solvate [Complex 5] | able to inhibit | – | 2.2 ± 0.5 µM | 3 ± 0.5 µM | 2.5 ± 0.9 µM | 3.1 ± 0.2 µM | 3.3 ± 0.1 µM | – | – | – | elevated the ROS levels similarly as pyocyanin | > 100 µM | – | – | – | – | 3.1 ± 1.1 µM | decreased its production | active | –
